From ChEMBL document CHEMBL4665816, “Syringoleosides A-H, Secoiridoids from Syringa dilatata Flowers and Their Inhibition of NO Production in LPS-Induced RAW 264.7 Cells” (J Nat Prod, 2020)

Tested on: RAW264.7
Assay: Anti-inflammatory activity in mouse RAW264.7 cells assessed as inhibition of LPS-induced NO production after 24 hrs by Griess reagent-based assay
Format: functional, cell-based
Conditions: RAW264.7, 24 h

| IC50 [µM] | SMILES |
| --- | --- |
| > 80 | C/C=C1/[C@H](O[C@@H]2O[C@H](CO)[C@@H](O)[C@H](O)[C@H]2O)OC=C(C(=O)OC)[C@H]1CC(=O)OC[C@H]1O[C@@H](Oc2ccc(/C=C/CO)cc2OC)[C@H](O)[C@@H](O)[C@@H]1O |
| > 80 | C/C=C1/[C@H](O[C@@H]2O[C@H](CO)[C@@H](O)[C@H](O)[C@H]2O)OC=C(C(=O)OC)[C@H]1CC(=O)O[C@H]1[C@H](O[C@@H]2OC=C(C(=O)OC)[C@@H](CC(=O)OC[C@H]3O[C@@H](OCCc4ccc(O)cc4)[C@H](O)[C@@H](O)[C@@H]3O)/C2=C\C)O[C@H](CO)[C@@H](O)[C@@H]1O |
| 42.1 | C/C=C1/[C@H](O[C@@H]2O[C@H](CO)[C@@H](O)[C@H](O)[C@H]2O)OC=C(C(=O)OC)[C@H]1CC(=O)O[C@H]1[C@H](OCCc2ccc(O)c(O)c2)O[C@H](CO)[C@@H](O)[C@@H]1O[C@@H]1O[C@@H](C)[C@H](O)[C@@H](O)[C@H]1O |
| 32.5 | C/C=C1/[C@H](O[C@@H]2O[C@H](CO)[C@@H](O)[C@H](O)[C@H]2O)OC=C(C(=O)OC)[C@H]1CC(=O)OC[C@H]1O[C@@H](OCc2ccccc2)[C@H](O)[C@@H](O)[C@@H]1O |
| > 80 | C/C=C1/[C@H](O[C@@H]2O[C@H](CO)[C@@H](O)[C@H](O)[C@H]2O)OC=C(C(=O)OC)[C@H]1CC(=O)OC |
| > 80 | C/C=C1/[C@H](O[C@@H]2O[C@H](CO)[C@@H](OC(=O)/C=C/c3ccc(O)c(O)c3)[C@H](O)[C@H]2O)OC=C(C(=O)OC)[C@H]1CC(=O)O[C@@H]1[C@@H](O)[C@@H](O)[C@H](O[C@H]2[C@H](O)[C@@H](O)[C@H](OCCc3ccc(O)c(O)c3)O[C@@H]2CO)O[C@H]1C |
| 58.3 | C/C=C1/[C@H](O[C@@H]2O[C@H](CO)[C@@H](O)[C@H](O)[C@H]2O)OC=C(C(=O)OC)[C@H]1CC(=O)OC[C@H]1O[C@@H](Oc2ccc(O)cc2)[C@H](O)[C@@H](O)[C@@H]1O |
| 65.7 | C/C=C1/[C@H](O[C@@H]2O[C@H](CO)[C@@H](O)[C@H](O)[C@H]2O)OC=C(C(=O)OC)[C@H]1CC(=O)OC[C@H]1O[C@@H](OCCc2ccccc2)[C@H](O)[C@@H](O)[C@@H]1O |
| 48.9 | C/C=C1/[C@H](O[C@@H]2O[C@H](CO)[C@@H](O)[C@H](O)[C@H]2O)OC=C(C(=O)OC)[C@H]1CC(=O)OC[C@H]1O[C@@H](OCCc2ccc(O)c(O)c2)[C@H](O)[C@@H](O)[C@@H]1O |
| > 80 | C/C=C1/[C@H](O[C@@H]2O[C@H](CO)[C@@H](O)[C@H](O)[C@H]2O)OC=C(C(=O)OC)[C@H]1CC(=O)OCCc1ccc(O)c(O)c1 [OLEUROPEIN] |
| 59.8 | C/C=C1/[C@H](O[C@@H]2O[C@H](CO)[C@@H](O)[C@H](O)[C@H]2O)OC=C(C(=O)OC)[C@H]1CC(=O)OC[C@H]1O[C@@H](OCCc2ccc(O)cc2)[C@H](O)[C@@H](O)[C@@H]1O |
| > 80 | C/C=C1/[C@H](O[C@@H]2O[C@H](CO)[C@@H](O)[C@H](O)[C@H]2O)OC=C(C(=O)OC)[C@H]1CC(=O)O[C@@H]1[C@@H](O)[C@H](O[C@@H]2OC=C(C(=O)OC)[C@@H](CC(=O)OC[C@H]3O[C@@H](OCCc4ccc(O)cc4)[C@H](O)[C@@H](O)[C@@H]3O)/C2=C\C)O[C@H](CO)[C@H]1O |
